Reference: article PMC6199744, “Development of Chemical Proteomics for the Folateome and Analysis of the Kinetoplastid Folateome” (ACS Infectious Diseases, 2018)
Read-outs that look alike come from different tables or passages of the source.

Experiments:
Type in all cases: binding
[1] = target: T1, HeLa cell extract proteins (Homo sapiens, UniProt P49411)
T1 construct: endogenous in cells; host or cells: HeLa cell extract

[2] = target: T2, HeLa cell extract proteins (Homo sapiens, UniProt P09496)
T2 construct: endogenous in cells; host or cells: HeLa cell extract
T2 sequence (P09496 1-248): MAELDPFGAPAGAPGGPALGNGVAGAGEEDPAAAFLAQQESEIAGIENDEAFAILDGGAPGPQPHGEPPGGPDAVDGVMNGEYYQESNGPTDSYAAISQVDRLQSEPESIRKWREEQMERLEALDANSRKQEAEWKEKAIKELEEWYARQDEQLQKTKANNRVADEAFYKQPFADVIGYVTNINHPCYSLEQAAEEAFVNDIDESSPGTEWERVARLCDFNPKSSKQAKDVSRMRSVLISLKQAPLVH

[3] = target: T3, HeLa cell extract proteins (Homo sapiens, UniProt O60762)
T3 construct: endogenous in cells; host or cells: HeLa cell extract

[4] = target: T4, HeLa cell extract proteins (Homo sapiens, UniProt P04406)
T4 construct: endogenous in cells; host or cells: HeLa cell extract

[5] = target: T5, HeLa cell extract proteins (Homo sapiens, UniProt Q8NEZ5)
T5 construct: endogenous in cells; host or cells: HeLa cell extract
T5 sequence (Q8NEZ5 1-403): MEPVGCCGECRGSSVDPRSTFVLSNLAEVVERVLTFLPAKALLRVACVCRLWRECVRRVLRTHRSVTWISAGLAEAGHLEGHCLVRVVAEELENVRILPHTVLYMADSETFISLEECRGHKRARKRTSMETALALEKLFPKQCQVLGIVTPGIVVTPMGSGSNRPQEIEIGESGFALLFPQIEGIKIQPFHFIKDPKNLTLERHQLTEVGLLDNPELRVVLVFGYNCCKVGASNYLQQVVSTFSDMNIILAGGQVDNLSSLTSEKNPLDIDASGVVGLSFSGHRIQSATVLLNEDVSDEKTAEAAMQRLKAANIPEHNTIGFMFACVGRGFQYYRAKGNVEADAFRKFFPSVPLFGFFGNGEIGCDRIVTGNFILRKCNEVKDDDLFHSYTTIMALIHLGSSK

[6] = target: T6, HeLa cell extract proteins (Homo sapiens, UniProt P34932)
T6 construct: endogenous in cells; host or cells: HeLa cell extract

[7] = target: T7, HeLa cell extract proteins (Homo sapiens, UniProt P04083)
T7 construct: endogenous in cells; host or cells: HeLa cell extract
T7 sequence (P04083 1-346): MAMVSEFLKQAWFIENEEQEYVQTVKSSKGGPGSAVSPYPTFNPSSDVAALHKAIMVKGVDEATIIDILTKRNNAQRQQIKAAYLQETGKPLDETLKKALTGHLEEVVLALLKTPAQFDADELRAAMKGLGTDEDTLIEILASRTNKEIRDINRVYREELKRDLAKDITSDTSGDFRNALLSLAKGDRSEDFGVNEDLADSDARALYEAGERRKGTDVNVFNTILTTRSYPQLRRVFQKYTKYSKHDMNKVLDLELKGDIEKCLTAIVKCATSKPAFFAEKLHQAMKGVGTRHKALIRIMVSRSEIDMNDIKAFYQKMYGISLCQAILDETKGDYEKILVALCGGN

[8] = target: T8, HeLa cell extract proteins (Homo sapiens, UniProt Q13347)
T8 construct: endogenous in cells; host or cells: HeLa cell extract

[9] = target: T9, HeLa cell extract proteins (Homo sapiens, UniProt Q5JVF3)
T9 construct: endogenous in cells; host or cells: HeLa cell extract

[10] = target: T10, HeLa cell extract proteins (Homo sapiens, UniProt P35270)
T10 construct: endogenous in cells; host or cells: HeLa cell extract

[11] = target: T11, HeLa cell extract proteins (Homo sapiens, UniProt P62633)
T11 construct: endogenous in cells; host or cells: HeLa cell extract

[12] = target: T12, HeLa cell extract proteins (Homo sapiens, UniProt P31949)
T12 construct: endogenous in cells; host or cells: HeLa cell extract
T12 sequence (P31949 1-105): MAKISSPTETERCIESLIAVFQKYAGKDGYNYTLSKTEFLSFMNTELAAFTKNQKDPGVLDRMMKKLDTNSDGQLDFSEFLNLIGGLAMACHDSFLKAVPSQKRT

[13] = target: T13, HeLa cell extract proteins (Homo sapiens, UniProt Q9Y5Y0)
T13 construct: endogenous in cells; host or cells: HeLa cell extract
T13 sequence (Q9Y5Y0 1-555): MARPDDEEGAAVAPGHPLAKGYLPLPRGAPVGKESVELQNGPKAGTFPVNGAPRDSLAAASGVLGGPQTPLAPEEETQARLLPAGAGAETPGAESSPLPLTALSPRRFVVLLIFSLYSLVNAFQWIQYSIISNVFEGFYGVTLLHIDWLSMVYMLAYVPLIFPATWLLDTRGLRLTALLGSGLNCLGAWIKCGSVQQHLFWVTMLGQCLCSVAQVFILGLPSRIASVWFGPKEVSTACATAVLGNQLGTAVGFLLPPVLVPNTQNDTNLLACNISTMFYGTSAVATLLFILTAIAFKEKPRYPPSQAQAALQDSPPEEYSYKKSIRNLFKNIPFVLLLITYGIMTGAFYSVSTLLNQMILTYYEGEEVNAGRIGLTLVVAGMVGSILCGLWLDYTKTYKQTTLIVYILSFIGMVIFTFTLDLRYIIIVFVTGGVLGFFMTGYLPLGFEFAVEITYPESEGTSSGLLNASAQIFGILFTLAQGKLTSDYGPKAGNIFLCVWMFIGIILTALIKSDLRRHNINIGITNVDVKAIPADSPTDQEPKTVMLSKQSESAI

[14] = target: T14, HeLa cell extract proteins (Homo sapiens, UniProt P07237)
T14 construct: endogenous in cells; host or cells: HeLa cell extract

[15] = target: T15, HeLa cell extract proteins (Homo sapiens, UniProt P06744)
T15 construct: endogenous in cells; host or cells: HeLa cell extract

[16] = HeLa, protein G3P1_HUMAN (GLYCERALDEHYDE-3-PHOSPHATE DEHYDROGENASE, MUSCLE.)
[17] = HeLa, protein GAPDH (39 KDA PROTEIN.)
[18] = HeLa, protein S100A11 (PROTEIN S100-A11.)
[19] = HeLa, protein GPI (CDNA FLJ56429, HIGHLY SIMILAR TO GLUCOSE-6-PHOSPHATE ISOMERASE.)

T6 sequence (P34932 whole entry): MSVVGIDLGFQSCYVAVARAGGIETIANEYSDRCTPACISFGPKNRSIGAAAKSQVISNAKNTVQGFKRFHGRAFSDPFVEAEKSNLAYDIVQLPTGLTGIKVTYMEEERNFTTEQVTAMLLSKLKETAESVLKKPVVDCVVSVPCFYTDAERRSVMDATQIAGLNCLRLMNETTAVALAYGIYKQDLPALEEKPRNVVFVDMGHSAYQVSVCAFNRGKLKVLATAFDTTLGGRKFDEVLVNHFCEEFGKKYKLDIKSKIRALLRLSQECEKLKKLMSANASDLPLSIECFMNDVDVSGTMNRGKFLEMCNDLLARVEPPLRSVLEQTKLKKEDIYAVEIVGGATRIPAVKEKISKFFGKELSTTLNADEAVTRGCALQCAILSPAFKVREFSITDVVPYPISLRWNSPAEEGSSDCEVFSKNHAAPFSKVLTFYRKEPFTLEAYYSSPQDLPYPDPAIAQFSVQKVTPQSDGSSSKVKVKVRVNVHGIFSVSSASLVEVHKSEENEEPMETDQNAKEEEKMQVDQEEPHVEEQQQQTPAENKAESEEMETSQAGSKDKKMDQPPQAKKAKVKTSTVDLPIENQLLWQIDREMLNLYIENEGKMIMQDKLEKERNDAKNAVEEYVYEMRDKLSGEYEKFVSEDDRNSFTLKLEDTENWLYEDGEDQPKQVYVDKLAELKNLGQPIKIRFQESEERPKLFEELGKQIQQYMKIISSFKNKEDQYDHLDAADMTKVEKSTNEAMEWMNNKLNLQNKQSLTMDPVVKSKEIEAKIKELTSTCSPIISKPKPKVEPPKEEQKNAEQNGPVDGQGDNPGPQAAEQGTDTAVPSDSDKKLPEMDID
T4 sequence (P04406 whole entry): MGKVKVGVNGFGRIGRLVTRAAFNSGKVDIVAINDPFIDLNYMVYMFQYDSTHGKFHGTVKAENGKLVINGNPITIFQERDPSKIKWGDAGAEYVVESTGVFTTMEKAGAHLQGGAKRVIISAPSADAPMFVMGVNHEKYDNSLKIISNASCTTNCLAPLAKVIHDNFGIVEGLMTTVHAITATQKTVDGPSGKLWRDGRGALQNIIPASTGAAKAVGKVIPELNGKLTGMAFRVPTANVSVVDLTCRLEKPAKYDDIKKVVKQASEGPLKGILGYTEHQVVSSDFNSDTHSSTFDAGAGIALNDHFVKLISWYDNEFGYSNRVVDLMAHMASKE
T10 sequence (P35270 whole entry): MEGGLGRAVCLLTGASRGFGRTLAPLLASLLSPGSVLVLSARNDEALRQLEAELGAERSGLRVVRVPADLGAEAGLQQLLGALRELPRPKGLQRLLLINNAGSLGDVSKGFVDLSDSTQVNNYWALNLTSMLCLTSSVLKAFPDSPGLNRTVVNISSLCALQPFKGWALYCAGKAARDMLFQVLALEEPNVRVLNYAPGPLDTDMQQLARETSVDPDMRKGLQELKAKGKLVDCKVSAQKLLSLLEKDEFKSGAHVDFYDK
T3 sequence (O60762 whole entry): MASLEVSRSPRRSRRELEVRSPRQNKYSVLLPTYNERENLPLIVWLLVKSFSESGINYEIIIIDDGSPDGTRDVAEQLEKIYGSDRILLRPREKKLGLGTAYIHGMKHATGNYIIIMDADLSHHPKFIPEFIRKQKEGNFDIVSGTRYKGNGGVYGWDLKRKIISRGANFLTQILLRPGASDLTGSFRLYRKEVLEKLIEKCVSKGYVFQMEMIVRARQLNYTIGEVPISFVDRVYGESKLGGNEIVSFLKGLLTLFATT
T9 sequence (Q5JVF3 whole entry): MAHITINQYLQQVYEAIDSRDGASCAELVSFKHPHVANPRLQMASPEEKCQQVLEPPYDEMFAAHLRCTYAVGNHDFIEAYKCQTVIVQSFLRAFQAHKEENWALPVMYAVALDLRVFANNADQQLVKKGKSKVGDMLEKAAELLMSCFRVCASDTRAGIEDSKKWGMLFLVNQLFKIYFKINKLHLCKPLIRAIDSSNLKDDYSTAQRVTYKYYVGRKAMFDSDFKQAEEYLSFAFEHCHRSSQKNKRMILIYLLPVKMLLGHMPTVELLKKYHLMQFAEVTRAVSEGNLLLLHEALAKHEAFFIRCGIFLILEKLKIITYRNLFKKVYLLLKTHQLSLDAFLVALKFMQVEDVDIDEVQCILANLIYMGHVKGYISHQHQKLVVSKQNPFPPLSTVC
T14 sequence (P07237 18-508): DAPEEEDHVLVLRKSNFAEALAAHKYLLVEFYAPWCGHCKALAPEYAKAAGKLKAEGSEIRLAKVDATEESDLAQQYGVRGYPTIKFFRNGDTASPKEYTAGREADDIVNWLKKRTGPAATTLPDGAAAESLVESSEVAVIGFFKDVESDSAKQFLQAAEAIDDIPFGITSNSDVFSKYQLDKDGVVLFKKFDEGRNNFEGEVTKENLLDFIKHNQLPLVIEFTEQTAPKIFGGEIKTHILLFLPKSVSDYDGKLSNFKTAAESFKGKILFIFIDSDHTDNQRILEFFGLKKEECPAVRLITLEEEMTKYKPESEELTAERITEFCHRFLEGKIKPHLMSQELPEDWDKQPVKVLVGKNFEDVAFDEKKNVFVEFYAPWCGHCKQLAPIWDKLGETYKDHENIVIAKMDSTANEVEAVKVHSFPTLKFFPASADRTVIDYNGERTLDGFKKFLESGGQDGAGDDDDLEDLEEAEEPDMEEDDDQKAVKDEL
T8 sequence (Q13347 whole entry): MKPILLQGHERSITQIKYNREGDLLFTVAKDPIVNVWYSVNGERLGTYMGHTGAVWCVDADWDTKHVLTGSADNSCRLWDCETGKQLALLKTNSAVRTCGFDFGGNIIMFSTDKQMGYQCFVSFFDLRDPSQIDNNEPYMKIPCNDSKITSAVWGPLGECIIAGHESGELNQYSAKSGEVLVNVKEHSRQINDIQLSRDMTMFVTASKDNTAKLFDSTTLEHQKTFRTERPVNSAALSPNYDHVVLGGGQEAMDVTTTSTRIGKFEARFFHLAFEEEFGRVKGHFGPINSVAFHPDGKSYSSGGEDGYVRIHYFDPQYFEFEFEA
T11 sequence (P62633 whole entry): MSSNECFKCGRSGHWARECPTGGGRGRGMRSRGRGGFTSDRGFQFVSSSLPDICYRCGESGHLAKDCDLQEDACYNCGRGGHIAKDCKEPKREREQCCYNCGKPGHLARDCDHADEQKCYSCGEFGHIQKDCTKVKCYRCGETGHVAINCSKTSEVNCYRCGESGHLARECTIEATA

Row | Structure (SMILES) | fold changes relative to vehicle control ([1]; protein TUFM, HeLa) | fold changes relative to vehicle control ([2]; HeLa, captured protein CLTA) | fold changes relative to vehicle control ([3]; protein DPM1, HeLa) | fold changes relative to vehicle control ([4]; protein GAPDH, HeLa) | fold changes relative to vehicle control ([5]; HeLa, protein FBXO22) | fold changes relative to vehicle control ([6]; HeLa, protein HSPA4) | fold changes relative to vehicle control ([7]; protein ANXA1, HeLa) | fold changes relative to vehicle control ([8]; HeLa, captured protein EIF3I) | fold changes relative to vehicle control ([9]; protein PCID2, HeLa) | fold changes relative to vehicle control ([10]; HeLa, protein SPR) | fold changes relative to vehicle control ([11]; HeLa, captured protein CNBP) | fold changes relative to vehicle control ([12]; HeLa, protein S100A11) | fold changes relative to vehicle control ([13]; protein FLVCR1, HeLa) | fold changes relative to vehicle control ([14]; HeLa, protein P4HB) | fold changes relative to vehicle control ([15]; HeLa, protein GPI) | fold changes relative to vehicle control ([2]; HeLa, protein CLTA) | fold changes relative to vehicle control ([3]; captured protein DPM1, HeLa) | fold changes relative to vehicle control [4, 16] | fold changes relative to vehicle control [4, 17] | fold changes relative to vehicle control ([5]; captured protein FBXO22, HeLa) | further results
1 | Nc1nc2c(c(=O)[nH]1)N(C=O)C(CNc1ccc(C(=O)N[C@@H](CCC(=O)O)C(=O)O)cc1)CN2 (stereo partly drawn) [LEU, leucovorin] | 0.93 | 1.19 | 0.94 | 1.01 | 1 | 0.97 | 0.81 | 1.06 | 0.74 | 0.92 | 0.98 | 1.32 | 0.57 | 0.96 | 0.98 | – | – | – | – | – | –
2 | Nc1nc2[nH]cc(CCc3ccc(C(=O)N[C@@H](CCC(=O)O)C(=O)O)cc3)c2c(=O)[nH]1 [PTX, pemetrexed] | – | – | – | – | – | – | – | – | – | – | – | – | – | – | – | – | – | – | – | – | fold changes relative to vehicle control [1]: 0.97; fold changes relative to vehicle control [2]: 1.55; fold changes relative to vehicle control [3]: 0.88; fold changes relative to vehicle control [4]: 1.14; fold changes relative to vehicle control [5]: 1; fold changes relative to vehicle control [6]: 1.09; fold changes relative to vehicle control [7]: 0.98; fold changes relative to vehicle control [8]: 1.06; fold changes relative to vehicle control [9]: 0.68; fold changes relative to vehicle control [10]: 0.86; fold changes relative to vehicle control [11]: 1.14; fold changes relative to vehicle control [12]: 1.29; fold changes relative to vehicle control [13]: 0.59; fold changes relative to vehicle control [14]: 1.03; fold changes relative to vehicle control [15]: 1.08
3 | CCCCCCOc1ccc(Cc2cnc(N)nc2N)cc1 [compound 1] | 1.18 | – | – | – | – | – | 1.21 | – | – | – | – | – | – | – | – | 0.68 | 0.89 | 1.39 fold | 1.52 fold | 0.89 | fold changes relative to vehicle control ([6]; protein HSPA4, HeLa): 1.19; fold changes relative to vehicle control ([8]; protein EIF3I, HeLa): 0.96; fold changes relative to vehicle control ([9]; HeLa, protein PCID2): 1.13; fold changes relative to vehicle control ([10]; protein SPR, HeLa): 1.03; fold changes relative to vehicle control ([11]; protein CNBP, HeLa): 1.26; fold changes relative to vehicle control [12, 18]: 1.66 fold; fold changes relative to vehicle control ([13]; HeLa, protein FLVCR1): 0.78; fold changes relative to vehicle control ([14]; protein P4HB, HeLa): 1.31; fold changes relative to vehicle control [15, 19]: 1.37 fold
4 | CCCCCCOc1cccc(Cc2cnc(N)nc2N)c1 [compound 2] | 1.68 | – | – | – | – | – | 1.86 | – | – | – | – | – | – | – | – | 0.99 | 0.84 | 2.61 fold | 2.46 fold | 1.02 | fold changes relative to vehicle control ([6]; protein HSPA4, HeLa): 2.1; fold changes relative to vehicle control ([8]; protein EIF3I, HeLa): 0.91; fold changes relative to vehicle control ([9]; HeLa, protein PCID2): 0.97; fold changes relative to vehicle control ([10]; protein SPR, HeLa): 1.21; fold changes relative to vehicle control ([11]; protein CNBP, HeLa): 1.8; fold changes relative to vehicle control [12, 18]: 2.47 fold; fold changes relative to vehicle control ([13]; HeLa, protein FLVCR1): 0.95; fold changes relative to vehicle control ([14]; protein P4HB, HeLa): 1.79; fold changes relative to vehicle control [15, 19]: 2.26 fold
5 | Nc1nc2cccc(-c3ccccc3)c2n1Cc1ccc(Cl)c(Cl)c1 [compound 3] | 0.92 | – | – | – | – | – | 0.86 | – | – | – | – | – | – | – | – | 1.09 | 1.02 | 0.84 fold | 0.95 fold | 0.96 | fold changes relative to vehicle control ([6]; protein HSPA4, HeLa): 0.92; fold changes relative to vehicle control ([8]; protein EIF3I, HeLa): 1.02; fold changes relative to vehicle control ([9]; HeLa, protein PCID2): 1.2; fold changes relative to vehicle control ([10]; protein SPR, HeLa): 1.12; fold changes relative to vehicle control ([11]; protein CNBP, HeLa): 0.83; fold changes relative to vehicle control [12, 18]: 1.08 fold; fold changes relative to vehicle control ([13]; HeLa, protein FLVCR1): 0.75; fold changes relative to vehicle control ([14]; protein P4HB, HeLa): 1; fold changes relative to vehicle control [15, 19]: 0.93 fold
6 | NCCOCCOCC(=O)Nc1nc2ncc(CNc3ccc(C(=O)NC(CCC(=O)O)C(=O)O)cc3)nc2c(=O)[nH]1 (stereo not drawn) [compound 6] | 1.07 | 1.48 | 1.1 | 1.35 | 0.82 | 1.26 | 1.24 | 0.98 | 0.91 | 0.92 | 1.3 | 1.59 | 0.62 | 1.19 | 1.23 | – | – | – | – | – | –
7 | NCCCNc1ccc(C(=O)NC(CCC(=O)O)C(=O)O)cc1 (stereo not drawn) [compound 7] | 0.88 | 1.4 | 1.04 | 0.97 | 0.98 | 0.92 | 0.87 | 0.97 | 0.75 | 0.95 | 1.04 | 1.2 | 0.57 | 0.92 | 0.96 | – | – | – | – | – | –
